What follows are molecules tested on Plasmodium falciparum (assay: Antimalarial activity against chloroquine-resistant, mefloquine-sensitive Plasmodium falciparum W2).
Type: functional
With CCO[C@H]1O[C@@H]2O[C@@]3(C)CC[C@H]4C(C=O)CC[C@@H]([C@H]1C)[C@@]24OO3 (some centres undefined) the “Log RA” value was 0.21. In the case of CCCC[C@H]1C(=O)O[C@@H]2O[C@@]3(CCCC)CC[C@H]4[C@H](C)CC[C@@H]1[C@@]24OO3, the “Log RA” value was -0.48. With C[C@@H]1CC[C@H]2CCO[C@@H]3O[C@@]4(CCCc5ccc(Cl)cc5)CC[C@@H]1[C@@]23OO4 the “Log RA” value was -0.55. In the case of C[C@@H]1CC[C@H]2[C@@H](C)C(=O)N(c3ccco3)[C@@H]3O[C@@]4(C)CC[C@@H]1[C@@]23OO4, the “Log RA” value was 0.11. With C[C@@H]1CC[C@@H]2[C@]34OO[C@](C)(CC[C@@H]13)O[C@H]4OC(OCC(F)(F)F)[C@]2(C)O (some centres undefined) the “Log RA” value was -0.7. For C[C@]12CC[C@H]3CCCC[C@@]3(OO1)[C@H](OCc1ccccc1)O2, the “Log RA” value was -0.09. In the case of CCC[C@H](Cc1ccccc1)OC1O[C@@H]2O[C@@]3(C)CC[C@H]4[C@H](C)CC[C@@H]([C@H]1C)[C@@]24OO3 (some centres undefined), the “Log RA” value was -0.09. With CCC[C@H]1C(=O)O[C@@H]2O[C@@]3(C)CC[C@H]4[C@H](C)CC[C@@H]1[C@@]24OO3 the “Log RA” value was 1.13. In the case of CCCC[C@H]1C(=O)O[C@@H]2O[C@@]3(C)CC[C@H]4[C@H](C)CC[C@@H]1[C@@]24OO3, the “Log RA” value was 0.17. CCO[C@H]1O[C@@H]2O[C@@]3(C)CC[C@H]4C(C)[C@@H](O)C[C@@H]([C@H]1C)[C@@]24OO3 (some centres undefined) was tested, and the “Log RA” value was 0.34. For C[C@@H]1CC[C@H]2CC(=O)O[C@@H]3O[C@@]4(C)CC[C@@H]1[C@@]23OO4, the “Log RA” value was 0.79. With CC(C)[C@H]1C(=O)O[C@@H]2O[C@@]3(C)CC[C@H]4[C@H](C)CC[C@]1(C)[C@@]24OO3 the “Log RA” value was -0.04. With CO[C@H]1O[C@@]2(C)CC[C@H]3CCC[C@@H](CCOCc4ccccc4)[C@]31OO2 the “Log RA” value was 0.75. CC1=CO[C@@H]2O[C@@]3(C)CC[C@H]4[C@H](C)CC[C@@H]1[C@@]24OO3 was tested, and the “Log RA” value was 0.78. CO[C@]1(C)CC[C@H]2[C@H](C)CCC[C@]2(C=O)OO1 was tested, and the “Log RA” value was -3.3. With CCCN1C(=O)C[C@@H]2CC[C@@H](C)[C@@H]3CC[C@@]4(C)OO[C@@]23[C@H]1O4 the “Log RA” value was 0.05. In the case of CCOC1C[C@@H]2CC[C@@H](C)[C@@H]3CC[C@@]4(C)OO[C@@]23[C@H](O1)O4 (some centres undefined), the “Log RA” value was 0.43. With CCC[C@H]1C(=O)O[C@@H]2O[C@@]3(C)CC[C@H]4[C@H](C)CC[C@@H]1[C@@]24O3 the “Log RA” value was -4. With C[C@@H]1CC[C@H]2CC(=O)O[C@@H]3O[C@@]4(CCc5ccccc5)CC[C@@H]1[C@@]23O4 the “Log RA” value was -4. C[C@@H]1CC[C@H]2[C@@H](C)C(CC(F)F)O[C@@H]3O[C@@]4(C)CC[C@@H]1[C@]32OO4 (some centres undefined) was tested, and the “Log RA” value was 0.11. For C[C@@H]1CC[C@H]2CCO[C@@H]3O[C@@]4(CCc5ccccc5)CC[C@@H]1[C@@]23OO4, the “Log RA” value was -1.7. C[C@H]1C(=O)OC2OC(C)(C)OO[C@@]23CCCCC13 (some centres undefined) was tested, and the “Log RA” value was -1.27. For CCOC(=O)CC[C@@]12CC[C@H]3[C@H](C)CC[C@H]4CC(=O)O[C@H](O1)[C@]43OO2, the “Log RA” value was 0.37. C[C@@H]1CC[C@@H]2[C@]34OO[C@](C)(CC[C@@H]13)O[C@H]4OC(=O)[C@@]2(O)CO was tested, and the “Log RA” value was -4. For CO[C@H]1O[C@@]2(C)CC[C@H]3CCC[C@@H](CCOS(=O)(=O)c4cccc5c(N(C)C)cccc45)[C@]31OO2, the “Log RA” value was 0.03. In the case of CCC[C@@]12CC[C@H]3[C@H](C)CC[C@H]4CC(=O)O[C@H](O1)[C@]43OO2, the “Log RA” value was 0.83. With C[C@@H]1CC[C@H]2[C@@H](C)C(CCCO)O[C@@H]3O[C@@]4(C)CC[C@@H]1[C@]32OO4 (some centres undefined) the “Log RA” value was 0.78. With CCO[C@H]1O[C@@H]2O[C@@]3(C)CC[C@H]4C(C)=C(F)C[C@@H]([C@H]1C)[C@@]24OO3 the “Log RA” value was -0.12. With CCCCCC[C@H]1C(=O)O[C@@H]2O[C@@]3(C)CC[C@H]4[C@H](C)CC[C@@H]1[C@@]24OO3 the “Log RA” value was 0.86. In the case of CCCCC[C@H]1CO[C@@H]2O[C@@]3(C)CC[C@H]4[C@H](C)CC[C@@H]1[C@@]24OO3, the “Log RA” value was 0.16. With CCOC(=O)C[C@@H](O[C@H]1O[C@@H]2O[C@@]3(C)CC[C@H]4[C@H](C)CC[C@@H]([C@H]1C)[C@@]24OO3)c1ccccc1 the “Log RA” value was 1.07. C[C@@H]1CC[C@H]2[C@@H](CCCc3ccc(Cl)cc3)C(=O)O[C@@H]3O[C@@]4(C)CC[C@@H]1[C@]32OO4 was tested, and the “Log RA” value was 1.37. With COC(=O)c1ccc(C(=O)OCC[C@@H]2CCC[C@@H]3CC[C@@]4(C)OO[C@]32[C@@H](OC)O4)cc1 the “Log RA” value was 0.27. With CC1(C)OO[C@]23CCCCC2CC(=O)OC3O1 (some centres undefined) the “Log RA” value was -2.237. For CCOC(=O)COC1O[C@@H]2O[C@@]3(C)CC[C@H]4[C@H](C)CC[C@@H]([C@H]1C)[C@@]24OO3 (some centres undefined), the “Log RA” value was 0.52. In the case of COC(=O)[C@H](C)COC1O[C@@H]2O[C@@]3(C)CC[C@H]4[C@H](C)CC[C@@H]([C@H]1C)[C@@]24OO3 (some centres undefined), the “Log RA” value was 2.25. With CC(C)CC[C@H]1C(=O)O[C@@H]2O[C@@]3(C)CC[C@H]4[C@H](C)CC[C@@H]1[C@@]24OO3 the “Log RA” value was 0.07. CCOC(=O)CC[C@@]12CC[C@H]3[C@H](C)CC[C@H]4CCO[C@H](O1)[C@]43O2 was tested, and the “Log RA” value was -4. With CCCC[C@H]1C(=O)O[C@@H]2O[C@@]3(CCCc4ccc(Cl)cc4)CC[C@H]4[C@H](C)CC[C@@H]1[C@@]24OO3 the “Log RA” value was -0.28. With C[C@@H]1CC[C@H]2[C@@H](CCCc3ccccc3)C(=O)O[C@@H]3O[C@@]4(C)CC[C@@H]1[C@]32OO4 the “Log RA” value was 0.78. With CCOC(=O)CC[C@@]12CC[C@H]3[C@H](C)CC[C@H]4CCO[C@H](O1)[C@]43OO2 the “Log RA” value was 0.7. With CCC[C@H]1C(OCC)O[C@@H]2O[C@@]3(C)CC[C@H]4[C@H](C)CC[C@@H]1[C@@]24OO3 (some centres undefined) the “Log RA” value was -0.04. For CO[C@@H]1O[C@@]2(C)CC[C@H]3CCCC[C@]31OO2, the “Log RA” value was -1.04. With CC(C)CCC[C@H]1C(=O)O[C@@H]2O[C@@]3(C)CC[C@H]4[C@H](C)CC[C@@H]1[C@@]24OO3 the “Log RA” value was -0.04. With C/C=C1\C(=O)O[C@@H]2O[C@@]3(C)CC[C@H]4[C@H](C)CC[C@@H]1[C@@]24OO3 the “Log RA” value was -0.36. C[C@@H]1CC[C@H]2C(=O)C(=O)O[C@@H]3O[C@@]4(C)CC[C@@H]1[C@]32OO4 was tested, and the “Log RA” value was -2.47. For C[C@@H]1CC[C@@H]2[C@]34OO[C@](C)(CC[C@@H]13)O[C@H]4OC(O)[C@]21CO1 (some centres undefined), the “Log RA” value was -0.57. For C=C1C(=O)O[C@@H]2O[C@@]3(C)CC[C@H]4[C@H](C)CC[C@@H]1[C@@]24OO3 [ARTEMISITENE], the “Log RA” value was -0.89. In the case of CC[C@@]12CC[C@H]3[C@H](C)CC[C@H]4CC(=O)O[C@H](O1)[C@]43O2, the “Log RA” value was -4. In the case of C[C@@H]1CC[C@@H]2[C@]34OO[C@](C)(CC[C@@H]13)O[C@H]4OC(Nc1ccccn1)[C@@]2(C)Br (some centres undefined), the “Log RA” value was -0.09. For C[C@@H]1CC[C@H]2[C@@H](C)C(OC(C)(C)C)O[C@@H]3O[C@@]4(C)CC[C@@H]1[C@]32OO4 (some centres undefined), the “Log RA” value was 0.92. For CC(C)CN1C(=O)[C@H](C)[C@@H]2CC[C@@H](C)[C@@H]3CC[C@@]4(C)OO[C@]32[C@H]1O4, the “Log RA” value was 1.03. COC(=O)CCCOC1O[C@@H]2O[C@@]3(C)CC[C@H]4[C@H](C)CC[C@@H]([C@H]1C)[C@@]24OO3 (some centres undefined) was tested, and the “Log RA” value was -0.03. For C[C@@H]1CC[C@H]2[C@@H](C)C(CC(C)(F)F)O[C@@H]3O[C@@]4(C)CC[C@@H]1[C@]32OO4 (some centres undefined), the “Log RA” value was -0.17. In the case of COC1O[C@@H]2O[C@@]3(C)CC[C@H]4[C@H](C)CC[C@@H]([C@H]1C)[C@@]24OO3 (some centres undefined), the “Log RA” value was 0.28. C[C@@H]1CC[C@H]2[C@H](C)C(=O)O[C@@H]3O[C@@]4(C)CC[C@@H]1[C@]32OO4 was tested, and the “Log RA” value was -0.17. In the case of CO[C@H]1O[C@@]2(C)CC[C@H]3CCC[C@@H](CCOCc4cc[n+](C)cc4)[C@]31OO2, the “Log RA” value was -0.9. For C[C@@H]1CC[C@H]2[C@@H](CCCc3ccccc3)CO[C@@H]3O[C@@]4(C)CC[C@@H]1[C@]32OO4, the “Log RA” value was 1.4. In the case of O=S(=O)(c1ccccc1)N1C[C@]2(c3ccccc3)CC[C@@](c3ccccc3)(C1)OO2, the “Log RA” value was -2.26. For CO[C@H]1O[C@@]2(C)CC[C@H]3CCC[C@@H](CCOC(=O)c4ccc(C(=O)OCCN(C)C)cc4)[C@]31OO2, the “Log RA” value was -0.6. With CCCC[C@H]1CO[C@@H]2O[C@@]3(C)CC[C@H]4[C@H](C)CC[C@@H]1[C@@]24OO3 the “Log RA” value was 1.32. In the case of C[C@@H]1CC[C@@H]2[C@]34OO[C@](C)(CC[C@@H]13)O[C@H]4OC(Nc1ccccc1)[C@@]2(C)Br (some centres undefined), the “Log RA” value was 0.18. In the case of CCO[C@@H]1O[C@@H]2O[C@@]3(C)CC[C@H]4[C@H](C)CC[C@@H]([C@H]1C)[C@@]24OO3, the “Log RA” value was 0.32. For CC[C@@]12CC[C@H]3[C@H](C)CC[C@H]4CC(=O)O[C@H](O1)[C@]43OO2, the “Log RA” value was 0.05. With C[C@@H]1CC[C@H]2[C@@H](C)C(=O)N[C@@H]3O[C@@]4(C)CC[C@@H]1[C@]32O4 the “Log RA” value was -4. C[C@@H]1CC[C@H]2[C@@H](C)C(OCC3C4CC5CC(C4)CC3C5)O[C@@H]3O[C@@]4(C)CC[C@@H]1[C@]32OO4 (some centres undefined) was tested, and the “Log RA” value was 0.28. In the case of C[C@H]1[C@@H](O[C@H](C)c2ccc(C(=O)O)cc2)O[C@@H]2O[C@@]3(C)CC[C@H]4[C@H](C)CC[C@@H]1[C@@]24OO3, the “Log RA” value was 0.12. C=CC[C@H]1C(=O)O[C@@H]2O[C@@]3(C)CC[C@H]4[C@H](C)CC[C@@H]1[C@@]24OO3 was tested, and the “Log RA” value was -0.1. CCCC[C@@]12CC[C@H]3[C@H](C)CC[C@H]4CCO[C@H](O1)[C@]43OO2 was tested, and the “Log RA” value was 0.75.

Source: ChEMBL document CHEMBL1135798, “Structure-activity relationships of the antimalarial agent artemisinin. 6. The development of predictive in vitro potency models using CoMFA and HQSAR methodologies” (2002)
